The record followed here is PubChem BioAssay (NCI).

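Dose response: 5 concentrations. Exposure: 48 h. Format: 96-well plates. Endpoint: linear interpolation; highest concentration if not reached. GI50 = concentration required for 50% inhibition of growth. TGI: total growth inhibition.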

Test systems include SNB-75 CNS; ACHN renal; SW-620 colon; 786-0 renal; PC-3 prostate; MALME-3M melanoma; BT-549 breast; OVCAR-5 ovarian; COLO 205 colon; MDA-MB-435.
Experiment in all cases: growth of human tumour cells (NCI), 48 h

Consider `COc1ccc(C(=O)c2cc(C)c(OC)c(C)c2)c(OC)c1NC(C)=O`, for which the GI50 with SNB-75 CNS is 0.0425 µM; in the test with ACHN renal, 0.0944 µM; with SW-620 colon it was 0.19 µM; in the test with 786-0 renal, 0.0562 µM; in the test with PC-3 prostate it was 0.0776 µM; in the test with MALME-3M melanoma it was 1.17 µM. Also, the GI50 was 0.258 µM with BT-549 breast, 0.191 µM with OVCAR-5 ovarian and 0.299 µM in the test on COLO 205 colon. Further, the TGI with SNB-75 CNS, with ACHN renal, in the test with SW-620 colon, in the test on 786-0 renal, with PC-3 prostate and in the test with MALME-3M melanoma was above 100 µM in each case. Besides, the TGI in the test on BT-549 breast was above 100 µM; in the test with OVCAR-5 ovarian, above 100 µM; in the test with COLO 205 colon it was 1.28 µM.

With `CCCCCCCCCCCCC(O)c1ccco1` (centres undefined), the GI50 was 21.1 µM in the test on SNB-75 CNS; 17.9 µM in the test on ACHN renal; 16.7 µM with SW-620 colon; 19.7 µM in the test on 786-0 renal; 16.9 µM with PC-3 prostate; 19.4 µM in the test on MDA-MB-435. The GI50 with BT-549 breast was 20.1 µM; in the test with OVCAR-5 ovarian it was 16.1 µM; in the test with COLO 205 colon, 36.6 µM. Further, the TGI in the test with SNB-75 CNS came out at 39 µM; in the test with ACHN renal, 31.7 µM; in the test with SW-620 colon, 32 µM; in the test on 786-0 renal it was 36.6 µM; with PC-3 prostate, 30.7 µM; in the test on MDA-MB-435, 35.6 µM. The TGI was 40.8 µM in the test with BT-549 breast, 30.3 µM in the test with OVCAR-5 ovarian and above 100 µM in the test with COLO 205 colon.

Regarding `CC(=O)N1CCN(CCNC(=O)n2cc(-c3ccncc3)c(-c3cc(O)cc(Cl)c3)n2)CC1`, the GI50 was 13.5 µM with SNB-75 CNS; 8.26 µM in the test with ACHN renal; 10.9 µM with SW-620 colon; 10.2 µM in the test with 786-0 renal; 13.6 µM in the test on PC-3 prostate; 2.7 µM with MDA-MB-435. Besides, the GI50 with BT-549 breast was 13 µM; in the test on OVCAR-5 ovarian, 23.8 µM; in the test with COLO 205 colon, 6.26 µM. Also, the TGI came out at 41.4 µM in the test with SNB-75 CNS; 61.9 µM with ACHN renal; 26.9 µM in the test with SW-620 colon; 23.3 µM in the test with 786-0 renal; 57.6 µM in the test on PC-3 prostate; 15.7 µM in the test with MDA-MB-435. The TGI in the test on BT-549 breast stood at 27.1 µM; with OVCAR-5 ovarian, 63.2 µM; with COLO 205 colon it was 20.9 µM.

With `COc1cccc2cc(N(C)c3nc(C)nc4c3CCC4)ccc12`, the TGI was 24.2 µM in the test on SNB-75 CNS; 13.7 µM in the test on ACHN renal; 18.6 µM with SW-620 colon; 14.4 µM in the test on 786-0 renal; 16.4 µM with PC-3 prostate; 27.9 µM in the test on MALME-3M melanoma. The TGI is 11 µM with BT-549 breast, 19.6 µM with OVCAR-5 ovarian and below 0.01 µM in the test on COLO 205 colon. Besides, the GI50 is below 0.01 µM in the test on ACHN renal; below 0.01 µM in the test on SW-620 colon; below 0.01 µM with 786-0 renal; below 0.01 µM in the test on PC-3 prostate; 12 µM in the test on MALME-3M melanoma; below 0.01 µM with BT-549 breast. In addition, the GI50 in the test with OVCAR-5 ovarian and in the test with COLO 205 colon was below 0.01 µM in each case.

As to `COc1ccc(-c2ccc(/C=N/n3c(COc4ccccc4Cl)nn(CN4CCOCC4)c3=S)o2)c([N+](=O)[O-])c1`, the GI50 in the test with ACHN renal was 33.6 µM; in the test with SW-620 colon it was 27.4 µM; in the test on 786-0 renal it was 34.4 µM; in the test on PC-3 prostate, 20.7 µM; in the test on MDA-MB-435 it was 17.1 µM; in the test on MALME-3M melanoma, 18 µM. In addition, the GI50 in the test on BT-549 breast was 14.3 µM; with OVCAR-5 ovarian, 55.3 µM; in the test on COLO 205 colon it was 36.6 µM. In addition, the TGI was above 100 µM with ACHN renal; 87.1 µM in the test on SW-620 colon; above 100 µM in the test on 786-0 renal; 61.4 µM with PC-3 prostate; 42.3 µM in the test with MDA-MB-435; 44.3 µM in the test on MALME-3M melanoma. For the same compound, the results for the TGI with BT-549 breast, with OVCAR-5 ovarian and in the test with COLO 205 colon were 40.7 µM, above 100 µM and above 100 µM, respectively.

For the compound `CN1Cc2ccccc2/C=C\c2ccccc21`, the TGI in the test with SNB-75 CNS, in the test with ACHN renal, in the test with SW-620 colon, with 786-0 renal, in the test with PC-3 prostate and in the test on MDA-MB-435 was above 100 µM each time. The TGI with MALME-3M melanoma, in the test with BT-549 breast and with COLO 205 colon was above 100 µM each time.

Take `CCOC(=O)C(Cc1ccc(N(CCCl)CCCl)cc1)NC(=O)C(Cc1ccccc1)NC=O` (centres undefined): the TGI with ACHN renal came out at 0.105 µM; in the test with SW-620 colon it was 0.414 µM; in the test on 786-0 renal, 0.303 µM; in the test with PC-3 prostate, 0.406 µM; in the test on MDA-MB-435 it was 0.338 µM; in the test on MALME-3M melanoma it was 0.191 µM. The values for the TGI with BT-549 breast, in the test on OVCAR-5 ovarian and in the test with COLO 205 colon were 0.756 µM, 0.548 µM and 0.322 µM, respectively.

For the compound `CS(=O)(=O)Nc1cccc(-c2ccc3ncnc(Nc4ccc(F)c(Cl)c4)c3c2)c1`, the GI50 in the test with SNB-75 CNS is 4.32 µM; in the test on ACHN renal it was 0.113 µM; with 786-0 renal, 1.71 µM; in the test on PC-3 prostate, 1.94 µM; in the test with MDA-MB-435, 1.91 µM; in the test with MALME-3M melanoma, 1.97 µM. In addition, the values for the GI50 in the test on BT-549 breast, in the test on OVCAR-5 ovarian and with COLO 205 colon were 1.81 µM, 1.89 µM and 1.6 µM, respectively. Besides, the TGI is above 30.2 µM with SNB-75 CNS; 6.06 µM in the test on ACHN renal; 3.76 µM in the test on 786-0 renal; 5.89 µM in the test on PC-3 prostate; 4.75 µM in the test on MDA-MB-435; 5.1 µM in the test on MALME-3M melanoma. The TGI with BT-549 breast was found to be 4.54 µM; in the test with OVCAR-5 ovarian, 6.66 µM; in the test with COLO 205 colon it was 3.35 µM.

`O=C(NNc1ccc(Cl)cc1)C1CCC(CNS(=O)(=O)c2ccccc2Cl)CC1` (centres undefined): the GI50 was 16.8 µM in the test on ACHN renal; 40.6 µM in the test on SW-620 colon; 13.7 µM in the test with 786-0 renal; 3.69 µM in the test with PC-3 prostate; 4.77 µM with MDA-MB-435; 21.6 µM in the test with BT-549 breast. For the same compound, in the test on OVCAR-5 ovarian, the GI50 is 17.3 µM. Besides, the TGI in the test on ACHN renal is 66.1 µM; with SW-620 colon it was above 100 µM; in the test on 786-0 renal it was 34 µM; in the test with PC-3 prostate, 34.7 µM; in the test on MDA-MB-435 it was 24.1 µM; in the test with BT-549 breast, 52.6 µM. The same compound yielded a TGI in the test with OVCAR-5 ovarian of 55 µM.
